Assay results: patent publication US6977259B2, “Quinoline derivatives and their use as aurora 2 kinase inhibitors” (AstraZeneca AB, priority 2000, dated 2005)

How the values were obtained:
MCF-7 cells [1] = experiment: In vitro cell proliferation assay II (BrdU incorporation); assay type: cell-based; details: Homo sapiens, MCF7; MCF-7, 48 hours with compound, 2 hour BrdU labelling, ELISA; read-out: concentration giving 50% inhibition of BrdU incorporation
Text: (§1) (b) In Vitro Cell Proliferation Assays
(§2) These and other assays can be used to determine the ability of a test compound to inhibit the growth of adherent mammalian cell lines, for example the human tumour cell line MCF7.
This assay determines the ability of at test compound to inhibit the incorporation of the thymidine analogue, 5′-bromo-2′-deoxy-uridine (BrdU) into cellular DNA. MCF-7 or other adherent cells were typically seeded at 0.8×10^4 cells per well in DMEM (Sigma Aldrich) without phenol red, plus 10% foetal calf serum, 1% L-glutamine and 1% penicillin/streptomycin (50 μl/well) in 96 well tissue culture treated 96 well plates (Costar) and allowed to adhere overnight. […] The optical density of the wells was then determined at 690 nm wavelength using a Titertek Multiscan plate reader. […]

aurora2 kinase = target: T1, aurora2 kinase (Homo sapiens, UniProt O14965); experiment: In vitro aurora2 kinase inhibition test; assay type: biochemical
T1 construct: made in house; host or cells: Spodoptera frugiperda Sf21 insect cells (baculovirus, pFastBac HTc)
T1 sequence (O14965 1-403): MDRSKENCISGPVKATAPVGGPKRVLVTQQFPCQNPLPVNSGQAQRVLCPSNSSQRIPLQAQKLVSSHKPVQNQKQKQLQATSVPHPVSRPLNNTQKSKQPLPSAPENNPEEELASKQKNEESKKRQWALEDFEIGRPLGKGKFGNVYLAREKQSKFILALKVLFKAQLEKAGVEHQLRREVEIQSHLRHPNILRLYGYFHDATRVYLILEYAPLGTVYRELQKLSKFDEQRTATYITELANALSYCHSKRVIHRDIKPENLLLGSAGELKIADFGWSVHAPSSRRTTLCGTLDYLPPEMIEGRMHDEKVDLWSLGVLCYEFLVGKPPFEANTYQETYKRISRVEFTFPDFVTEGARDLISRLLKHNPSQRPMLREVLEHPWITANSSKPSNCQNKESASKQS

MCF-7 cells [2] = experiment: In vitro cell proliferation assay 1 (CyQUANT cell density); assay type: cell-based; details: Homo sapiens, MCF7, 72 h; MCF-7, 3 days with compound, CyQUANT fluorescence; read-out: concentration giving 50% inhibition of cell proliferation
Text: as §1, §2
MCF-7 (ATCC HTB-22) or other adherent cells were typically seeded at 1×10^3 cells per well (excluding the peripheral wells) in DMEM (Sigma Aldrich) without phenol red, plus 10% foetal calf serum, 1% L-glutamine and 1% penicillin/streptomycin in 96 well tissue culture treated clear plates (Costar). The following day (day 1), the media was removed from a no treatment control plate and the plate stored at −80° C. […] The fluorescence of the wells was then measured using a fluorescence microplate reader (gain 70, 2 reads per well, 1 cycle with excitation 485 nm and emission 530 nm using a CytoFluor plate reader (PerSeptive Biosystems Inc.)). […]

COc1cc2c(Nc3cnc(NC(=O)c4ccccc4)nc3)ccnc2cc1OCCCN1CCOCC1 [Compound 2]
IC50 (MCF-7 cells [1]): 460 nM
IC50 (aurora2 kinase): 59.2 nM
IC50 (MCF-7 cells [2]): 456 nM

O=C(Nc1ncc(Nc2ccnc3cc(OCCCN4CCOCC4)ccc23)cn1)c1ccccc1 [Compound 4]
IC50 (MCF-7 cells [1]): 190 nM
IC50 (aurora2 kinase): 78.5 nM
IC50 (MCF-7 cells [2]): 185 nM
